According to patent publication US20050158391A1, “Azithromycin multiparticulate dosage forms by melt-congeal processes” (Pfizer Inc, priority 2003, published 2005):
Like-named read-outs stand apart in the source and are kept apart here.

What was measured:
[1] = Degree of acid/ester substitution [A] from Saponification Number; assay type: physicochemical; conditions: for [A] degree of acid/ester substitution: Saponification Number (Pharmaceutical Excipients 2000) divided by 56.11
Description: However, in most cases, the excipient candidate is not available in pure form, and may constitute a mixture of several primary molecular types as well as small amounts of impurities or degradation products that could be acids or esters. In addition, many excipient candidates are natural products or are derived from natural products that may contain a wide range of compounds, making the above calculations extremely difficult, if not impossible. […] The Saponification Number is the number of milligrams of potassium hydroxide required to neutralize or hydrolyze any acid or ester substituents present in 1 gram of the material. Measurement of the Saponification Number is a standard way to characterize many commercially available pharmaceutical excipients and the manufacturer often provides an excipient's Saponification Number. The Saponification Number will not only account for acid and ester substituents present on the excipient itself, but also for any such substituents present due to impurities or degradation products in the excipient. Thus, the Saponification Number will often provide a more accurate measure of the degree of acid/ester substitution in the excipient.
The degree of acid and ester substitution on a excipient can be calculated from the Saponification Number as follows. Dividing the Saponification Number by the molecular weight of potassium hydroxide, 56.11 g/mol, results in the number of millimoles of potassium hydroxide required to neutralize or hydrolyze any acid or ester substituents present in one gram of the excipient. Since one mole of potassium hydroxide will neutralize one equivalent of acid or ester substituents, dividing the Saponification Number by the molecular weight of potassium hydroxide also results in the number of meq of acid or ester substituents present in one gram of excipient.
For example, glyceryl monostearate can be obtained with a Saponification Number of 165, as specified by the manufacturer. Thus, the degree of acid/ester substitution per gram of glyceryl monostearate or its acid/ester concentration is 165÷56.11=2.9 meq/g excipient. Using the above example of a composition with 30 wt % azithromycin and 70 wt % glyceryl monostearate, the theoretical concentration of esters formed per gram of azithromycin if all of the azithromycin reacted would be 2.9 meq/g×70/30=6.8 meq/g.
This example illustrates how the degree of acid/ester substitution can be determined from the Saponification Number for an excipient. The degree of acid/ester substitution [A] for the excipients listed in Table 5 was determined by dividing by 56.11 the Saponification Number for the carrier as listed in Pharmaceutical Excipients 2000.
This example illustrates how the degree of acid/ester substitution can be determined from the Saponification Number for an excipient. The degree of acid/ester substitution for the excipients listed in Table 6 were determined by dividing by 56.11 the Saponification Number provided by the manufacturer.

[2] = cited from earlier work
[3] = Solubility of azithromycin dihydrate in molten excipient; assay type: physicochemical; conditions: 65° C.
Procedure: The solubility of azithromycin dihydrate in beeswax was measured using the following procedure. A 5 g sample of beeswax was placed in a glass vial and melted at 65° C. by placing the vial in a hot-water bath. Crystals of azithromycin dihydrate were then slowly added to the molten wax, with stirring. The crystals first added dissolved into the wax. […] Thus, the solubility of azithromycin dihydrate in beeswax was determined to be about 6 wt %.
Using the procedure outlined in Screening Example 29, the solubility of azithromycin dihydrate in the excipients listed in Table 8 was determined at the temperatures listed therein. In addition, the solubility of azithromycin dihydrate was determined for mixtures of carriers in the weight ratios reported in Table 8.

[4] = as listed in Pharmaceutical Excipients 2000

[A] degree of acid/ester substitution [1]	solubility of azithromycin dihydrate in beeswax [3]	degree of acid/ester substitution (acid/ester concentration) ([1]; 165÷56.11) [meq/g excipient]	Molecule	Saponification Number [2, 4]	Saponification Number ([2]; as specified by the manufacturer (description example))
2.6-2.8 meq/g carrier			sorbitan monostearate	147-157	
3.6-3.9 meq/g carrier			CCCCCCCCCCCCCCCCCC(=O)O [stearic acid, octadecanoic acid]	200-220	
<0.04 meq/g carrier			CCCCCCCCCCCCCCCCCCO [stearyl alcohol, 1-octadecanol]	<2	
2.8-2.9 meq/g carrier		2.9	CCCCCCCCCCCCCCCCCC(=O)OCC(O)CO (stereo not drawn) [glyceryl monostearate]	155-165	165

Continued, molecule first:

Molecule	[A] degree of acid/ester substitution [1]	solubility of azithromycin dihydrate in beeswax [3]	degree of acid/ester substitution (acid/ester concentration) ([1]; 165÷56.11) [meq/g excipient]	Saponification Number [2, 4]	Saponification Number ([2]; as specified by the manufacturer (description example))
CC[C@H]1OC(=O)[C@H](C)[C@@H](O[C@H]2C[C@@](C)(OC)[C@@H](O)[C@H](C)O2)[C@H](C)[C@@H](O[C@@H]2O[C@H](C)C[C@H](N(C)C)[C@H]2O)[C@](C)(O)C[C@@H](C)CN(C)[C@H](C)[C@@H](O)[C@]1(C)O [azithromycin dihydrate, 9a-aza-9a-methyl-9-deoxo-9a-homoerythromycin A]		about 6 wt %			
CCCCCCCC/C=C\CCCCCCCC(=O)OCC(O)CO (stereo not drawn) [glyceryl monooleate]	2.9-3.0 meq/g carrier			160-170	
CCCCCCCCCCCCCCCCO [cetyl alcohol]	<0.04 meq/g carrier			<2	
